{"source": "patent US10519193B2", "about": "“Steroidal compound, composition containing the same and use thereof” (Shenzhen TargetRx, Inc., priority 2016, dated 2019)", "key": {"Human CYP17 [1]": {"biological_target": "T1, Human CYP17 (Homo sapiens, UniProt P05093)", "T1 sequence (P05093 1-508)": "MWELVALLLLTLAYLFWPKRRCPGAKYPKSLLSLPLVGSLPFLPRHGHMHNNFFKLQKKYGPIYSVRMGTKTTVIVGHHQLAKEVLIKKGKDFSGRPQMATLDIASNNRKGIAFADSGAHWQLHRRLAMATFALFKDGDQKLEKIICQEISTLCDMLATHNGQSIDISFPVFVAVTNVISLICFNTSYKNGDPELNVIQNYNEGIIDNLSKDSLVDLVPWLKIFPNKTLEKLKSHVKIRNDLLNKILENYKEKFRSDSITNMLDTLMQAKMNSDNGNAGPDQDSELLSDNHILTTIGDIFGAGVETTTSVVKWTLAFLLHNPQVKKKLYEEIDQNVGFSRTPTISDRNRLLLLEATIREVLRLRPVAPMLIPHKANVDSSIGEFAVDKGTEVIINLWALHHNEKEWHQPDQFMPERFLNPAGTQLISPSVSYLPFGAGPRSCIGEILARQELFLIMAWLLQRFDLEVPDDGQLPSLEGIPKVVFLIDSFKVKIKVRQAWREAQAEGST", "experiment": "CYP17 hydroxylase assay", "format": "biochemical", "design": "made in house; host or cells: E. coli (membrane preparation)", "details": "hCYP17 E. coli membrane, 25 μM pregnenolone, 37° C. 120 minutes; read-out: CYP17 hydroxylase IC50", "experimental": "E. coli was transformed to express active human CYP17, and a membrane prepared from the transformed E. coli was used as a source of the enzyme. […] The reaction mixture was incubated at 37° C. for 120 minutes and 200 μL of 0.02 N HCl in acetonitrile was added to stop the reaction. The sample was then spun at […] and 200 μL of the supernatant was transferred to a clean tube for determination. The reaction product 17-alpha pregnenolone was measured by LC/MS."}, "[2]": {"experiment": "Metabolic stability evaluation in human liver microsomes", "format": "in vitro ADME", "details": "human liver microsome", "experimental": "Experiments in microsomes: Human liver microsomes: 0.5 mg/mL, Xenotech; Coenzyme (NADPH/NADH): 1 mM, Sigma Life Science; Magnesium chloride: 5 mM, 100 mM phosphate buffer (pH 7.4).\nPreparation of stock solution: Powder of the example compound was accurately weighed and dissolved in DMSO to 5 mM.\nPreparation of phosphate buffer (100 mM, pH7.4): A pre-formulated 0.5M potassium dihydrogen phosphate (150 mL) was mixed with 0.5M dibasic potassium phosphate (700 mL). The pH of the mixture was adjusted to 7.4 with 0.5M dibasic potassium phosphate solution. The mixture was diluted 5-fold with ultrapure water before use, and magnesium chloride was added to obtain a phosphate buffer (100 mM) containing 100 mM potassium phosphate, 3.3 mM magnesium chloride, pH 7.4.\nA NADPH regeneration system solution (containing 6.5 mM NADP, 16.5 mM G-6-P, 3 U/mL G-6-P D, 3.3 mM magnesium chloride) was prepared and placed on wet ice prior to use.\nPreparation of stop solution: acetonitrile solution containing 50 ng/mL propranolol hydrochloride and 200 ng/mL tolbutamide (internal standard). 25057.5 μL of phosphate buffer (pH 7.4) was taken into a 50 mL centrifuge tube, to which 812.5 μL human liver microsomes were added, and mixed to obtain a liver microsome dilution solution with a protein concentration of 0.625 mg/mL. 25057.5 μL of phosphate buffer (pH 7.4) was taken into a 50 mL centrifuge tube, to which 812.5 μL SD rat liver microsomes were added, and mixed to obtain a liver microsome dilution solution with a protein concentration of 0.625 mg/mL.\nIncubation of the samples: The stock solution of the respective compound was respectively diluted to 0.25 mM with an aqueous solution containing 70% acetonitrile, and used as a working solution, ready for use. 398 μL of the dilution solution of human liver microsomes or rat liver microsome were added to a 96-well incubation plate (N=2), respectively, and 2 μL of 0.25 mM working solution was added and mixed.\nMetabolic stability assay: 300 μL of pre-chilled stop solution was added to each well of a 96-well deep well plate and placed on ice as a stop plate. The 96 well incubation plate and NADPH regeneration system were placed in a 37° C. water bath box, shaken at 100 rpm and pre-incubated for 5 min. 80 μL of incubation solution was taken out from each well of the incubation plate and added to the stop plate, mixed, and replenished with 20 μL of NADPH regeneration system solution as a 0-min sample. 80 μL of NADPH regeneration system solution was added to each well of the incubation plate to start the reaction and start counting. […] Separately, 100 μL of the reaction solution was taken at 10, 30, and 90 min reaction, respectively, added to a stop plate, and vortexed for 3 minutes to terminate the reaction. The stop plate was centrifuged at 5000×g at 4° C. for 4 min. 100 μL of the supernatant was added to a 96-well plate to which 100 μL of distilled water was previously added, mixed, and analyzed by LC-MS/MS.\nData analysis: The peak areas of the corresponding compound and internal standard were detected by LC-MS/MS system, and the ratio of the peak area of the compound to the internal standard was calculated."}, "[3]": {"test_system": "PSA protein secretion, LNcaP cells", "experiment": "Inhibition of cellular PSA protein secretion", "format": "cell-based", "details": "Homo sapiens, 1 nM DHT, 48 hours, ELISA, read-out: Inhibition of PSA proteins, IC50", "experimental": "Experimental steps: 1. The original culture medium was replaced with culture medium containing 10% Charcoal Stripped FBS, and cells were allowed to starve in culture flasks for 24 hours; 2. Cells were digested and counted, and LNcaP cells were seeded into 96-well plates at 10,000 cells/well and incubated overnight; 3. The DHT and compound were added to the existing medium at a set concentration, the final concentration of DHT was 1 nM, the initial concentration of the compound was 50000 nM, 5-fold dilution was carried out, 8 concentration gradients were obtained, and incubation was carried out for 48 hours; 4. Cell culture supernatants were collected and PSA protein levels were measured according to the ELISA kit instructions. IC50 was calculated using GraphPad Prism based on the inhibition rate at each concentration, and the results were shown in Table 2 below."}, "Human CYP17 [4]": {"biological_target": "T1, Human CYP17", "experiment": "CYP17 lyase assay", "format": "biochemical", "design": "made in house; host or cells: HEK293 cells (microsomes)", "details": "CYP17-HEK293 microsomes, 20 minutes at room temperature; read-out: CYP17 lyase IC50", "experimental": "Human CYP17 was expressed in HEK293 cells and microsome were prepared, which was subsequently used as a source of enzyme for lyase assays. The reaction includes 200 nM [3H]-hydroxy pregnenolone (ARC), 200 nM 17-hydroxy pregnenolone (Sigma), 2 mM NADPH (Calbiochem), and CYP 17-HEK293 microsomes, which were incubated for 20 minutes at room temperature in the presence of DMSO or a test compound. Compounds were dissolved in DMSO and serially diluted. The reaction was stopped by the addition of 0.2N HCl and the product was captured using an anti-mouse YSi SPA Bead (GE) conjugated anti-DHEA monoclonal antibody (Abcam). The signal intensity determined by Packard Top Count was used to calculate the percent inhibition and IC50 values."}, "[5]": {"details": "human liver microsomes, pH 7.4, 1 μM compound, 0.5 mg/mL protein"}}, "data": [{"smiles": "[2H]c1ccc(C2=CCC3C4CCC5=CC(=O)CC[C@]5(C)C4CC[C@]23C)cn1", "note": "(stereo partly drawn) [Example 12, (3β)-17-(3-pyridyl-6-d)androst-4,16-dien-3-one]", "values": [{"measurement": "IC50", "setting": "Human CYP17 [1]", "result": "< 0.02", "unit": "µM"}, {"measurement": "clearance compared to the non-deuterated compound", "setting": "[2]; in words", "result": "reduced"}, {"measurement": "half-life compared to the non-deuterated compound", "setting": "[2]; in words", "result": "prolonged"}, {"measurement": "half-life at 1 μM", "setting": "[2]; [5]", "result": 3.4, "unit": "min"}, {"measurement": "microsomal CLint at 1 μM", "setting": "[2]; [5]", "result": 408, "unit": "µL/min/mg"}, {"measurement": "IC50", "setting": "[3]", "result": "< 0.01", "unit": "µM"}, {"measurement": "IC50", "setting": "Human CYP17 [4]", "result": "< 0.01", "unit": "µM"}]}, {"smiles": "[2H]C1=C(c2cccnc2)[C@@]2(C)CCC3C(CCC4=CC(=O)CC[C@@]43C)C2C1", "note": "(stereo partly drawn) [Example 13, (3β)-17-(3-pyridyl)-16-d-androst-4,16-dien-3-one]", "values": [{"measurement": "IC50", "setting": "Human CYP17 [1]", "result": "< 0.02", "unit": "µM"}, {"measurement": "IC50", "setting": "[3]", "result": "< 0.01", "unit": "µM"}, {"measurement": "IC50", "setting": "Human CYP17 [4]", "result": "< 0.01", "unit": "µM"}]}]}
